Tests used:
Format in all cases: cell-based, human
Settings in all cases: Tacrolimus 10 ng/mL (Table 3); 7 days MLR; mean +/- SD
[1] = system: CD3^+ cells; assay: In vitro T cell proliferation assay (allogenic PBMC co-culture, MLR), CD3+ cells
Text: (§1) Frozen PBMC were thawed in RPMI medium (Gibco, Thermofisher scientific, Waltham, Massachusetts, USA) with 20% fetal bovine serum (Cytiva, Little Chalfont, Buckinghamshire, United Kingdom). 200 000 PBMC from an individual, stained with CelltraceTM Violet Dye (Thermofisher scientific), were cocultured with 200 000 PBMC from another individual stained with CelltraceTM Farr Red Dye (Thermofisher Scientific) in RPMI medium supplemented with 10 % FBS and penicilline-streptomycine (Cultek, Madrid, Spain) for 7 days. […] Cells were analyzed using a LSRFortessaTM flow cytometer with DIVA (BD Biosciences) and FlowJo Softwares (Tree Star, Ashland, OR, USA). For each condition, we assessed the proportion of PBMC with low Violet or Farr Red dye staining among CD3^+ cells, C3^+CD4^+ cells and CD3^+CD4^+PD-1^+ cells and proceeded to normalization to the MLR without drug condition.

[2] = system: CD3^+CD4^+ cells; assay: In vitro T cell proliferation assay (allogenic PBMC co-culture, MLR), CD3+CD4+ cells
Text: as §1

[3] = system: CD3^+CD4^+PD-1^+ cells; assay: In vitro T cell proliferation assay (allogenic PBMC co-culture, MLR), CD3+CD4+PD-1+ cells
Text: as §1

**Q.** For `C=CC[C@@H]1/C=C(\C)C[C@H](C)C[C@H](OC)[C@H]2O[C@@](O)(C(=O)C(=O)N3CCCC[C@H]3C(=O)O[C@H](/C(C)=C/[C@@H]3CC[C@@H](O)[C@H](OC)C3)[C@H](C)[C@@H](O)CC1=O)[C@H](C)C[C@@H]2OC` [Tacrolimus], which “Proliferation of CD3^+ cells (% of proliferation compared with the condition without drug)” value [1] is on record?
**A.** 19.35 +/- 14.78%

**Q.** What about the “Proliferation of CD3^+CD4^+ cells (% of proliferation compared with the condition without drug)” value [2] of the same molecule?
**A.** 23.34 +/- 20.03%

**Q.** What about the “Proliferation of CD3^+CD4^+PD-1^+ cells (% of proliferation compared with the condition without drug)” value [3] of the same molecule?
**A.** 25.65 +/-20.39%

From patent EP4454710A1, “BISPECIFIC FUSION PROTEINS WITH IMMUNOSUPPRESSIVE ACTIVITY” (Universitat de Barcelona, priority 2023, dated 2024)
